Results taken from US4446129A, “Method for treatment of arthrosis deformans with elastase” (Eisai Co., Ltd., priority 1982, dated 1984).
Where “and” joins values, the source holds several entries; their conditions need not be identical. Identical values can stand only once. Entries after “also recorded” stand apart in the source; their conditions may differ.

Key:
[1] = tested on: Wistar strain female and male rats; test: Subacute toxicity, rats; assay type: in vivo, rat; conditions: oral, 750, 7,500 and 37,500 or 75,000 EL. U/kg/day for 4 weeks
Excerpt: (§1) Elastase was orally administered to Wistar strain female and male rats at dosages of 750, 7,500 and 37,500 or 75,000 EL. U/kg/day for 4 weeks, and to female and male beagle dogs at dosages of 900 or 4,500 EL. U/kg/day for 12 weeks.

[2] = tested on: female and male beagle dogs; test: Subacute toxicity, dogs; assay type: in vivo, dog; conditions: oral, 900 or 4,500 EL. U/kg/day for 12 weeks
Excerpt: as §1

[3] = tested on: Wistar strain female and male rats; test: Chronic toxicity, rats; assay type: in vivo, rat; conditions: oral, 2,250, 5,700, 11,250 or 22,500 EL. U/kg/day for 24 weeks
Excerpt: Elastase was orally administered to Wistar strain female and male rats at dosages of 2,250, 5,700, 11,250 or 22,500 EL. U/kg/day for 24 weeks.

pregnant mice = test: Teratogenicity, mice; assay type: in vivo, mouse; conditions: oral, 750, 7,500 or 75,000 EL. U/kg/day, 6 days
Excerpt: (§2) Elastase was forcibly orally administered to pregnant mice and rats in the stage of organogenesis at dosages of 750, 7,500 or 75,000 EL. U/kg/day for 6 consecutive days. As a result, death, hindrance to growth and teratogenesis of the embryos were not observed, and there was no effect upon the morphological and functional differentiation of the newborn animals.

pregnant rats = test: Teratogenicity, rats; assay type: in vivo, rat; conditions: oral, 750, 7,500 or 75,000 EL. U/kg/day, 6 days
Excerpt: as §2

gonarthralgia = test: Clinical examples: effectiveness against gonarthralgia; assay type: in vivo, human
Excerpt: (§3) The subjects included 18 patients (men 6 cases, women 12 cases, ages 57 to 88, average 70.9±8.2 years old) that were diagnosed negative as to rheumatoid arthrosis and were clinically diagnosed as suffering from gonarthrosis deformans. […] The distribution of the duration of gonarthralgia in the patients from the onset thereof was such that six cases fell into each of the periods of (1) three years or shorter, (2) four to five years, and (3) five years or longer.
(§4) The effectiveness of elastase against gonarthrosis deformans was evaluated by administering capsules containing 1,800 EL.U elastase at a daily dosage of 3 capsules per day to each patient for 8 weeks, and investigating the severity of gonarthralgia before administration, 4 weeks after administration, and 8 weeks after administration.
(§5) However, these patients had received and continued to receive during the test period antihypertensive agents, agents for improving cerebral circulation and other drugs for the treatment of their underlying diseases. However, the levels of these drugs in the patients' bodies remained unchanged from the day 8 weeks before the start of the test up to the last day of the test. During the tests, no patient received any other antiinflammatory, analgesic or steroid having the possible effect of palliation of arthralgia.

[4] = tested on: other types of arthralgia; test: Clinical examples: effectiveness against other types of arthralgia and symptoms; assay type: in vivo, human
Excerpt: as §3, §4, §5

human patients = test: Clinical examples: side effects; assay type: in vivo; conditions: for resolution of epigastric discomfort: after 4 weeks
Excerpt: as §3, §4, §5

[5] = Absorption, blood concentration and fate of elastase after oral administration; assay type: in vivo
[6] = porcine elastase; cited from earlier work
elastase = conditions: cited from earlier work
lipoprotein = conditions: cited from earlier work
[7] = tested on: lipid metabolism in the serum and tissues; arterial walls; conditions: cited from earlier work
[8] = duration 3 years or shorter, 4 w
[9] = duration 3 years or shorter, 8 w
[10] = duration 5 years or longer, 4 w
[11] = duration 5 years or longer, 8 w
[12] = individual patient case (one line per case No. 1-18), 3 capsules of 1,800 EL.U per day
[13] = individual patient case (Table 2)

elastase: enzyme which specifically decomposes elastin, a water-insoluble scleroprotein; industrially produced by extraction from swine pancreas
Subacute toxicity: general physical condition, blood and urinary tests, morphological observations [1]: no noteworthy anomalous findings | Subacute toxicity: general physical condition, blood and urinary tests, morphological observations [2]: no noteworthy anomalous findings | Chronic toxicity: general physical condition, blood and urinary tests, morphological observations [3]: no anomalous findings | effect upon morphological and functional differentiation of the newborn animals (pregnant mice): no effect | death, hindrance to growth and teratogenesis of the embryos (pregnant mice; organogenesis): not observed | effect upon morphological and functional differentiation of the newborn animals (pregnant rats): no effect | death, hindrance to growth and teratogenesis of the embryos (pregnant rats; organogenesis): not observed | "ineffective" result, number (gonarthralgia; 4 to 5 year group): one | "ineffective" result, number (gonarthralgia; 5 years or longer group): one | result (case history) (gonarthralgia; Case 4, Case 8, Case 16, Case 13): markedly effective; also recorded: ineffective (when there was no effect) | pain in knee joints when administration was discontinued (gonarthralgia; Case 9): worsened | gonarthralgia after restart of administration (gonarthralgia; Case 9, restarted at beginning of third week): palliation of gonarthralgia | improvement, case history (gonarthralgia; Case 13, after either 4 weeks or 8 weeks): no improvement was recognized | difficulty with Japanese dancing, case history (gonarthralgia; Case 16, after 4 weeks): disappeared | knee pain, case history (gonarthralgia; after 4 weeks, Case 4, Case 8, Case 16): completely cleared up; also recorded: disappeared entirely | gonarthralgia in cases with other symptoms (gonarthralgia; all of these cases): palliated or cleared up | aggravated, number of cases (gonarthralgia; [8]): 0 | effective, number of cases (gonarthralgia; [8]): 3 | ineffective, number of cases (gonarthralgia; [8]): 0 | markedly effective, number of cases (gonarthralgia; [8]): 3 | rate of effectiveness (gonarthralgia; [8]): 100% | rate of effectiveness (cases/total) (gonarthralgia; [8]): 6/6 | aggravated, number of cases (gonarthralgia; [9]): 0 | effective, number of cases (gonarthralgia; [9]): 3 | ineffective, number of cases (gonarthralgia; [9]): 0 | markedly effective, number of cases (gonarthralgia; [9]): 3 | rate of effectiveness (gonarthralgia; [9]): 100% | rate of effectiveness (cases/total) (gonarthralgia; [9]): 6/6 | aggravated, number of cases (gonarthralgia; duration 4 to 5 years, 4 w): 0 | effective, number of cases (gonarthralgia; duration 4 to 5 years, 4 w): 3 | ineffective, number of cases (gonarthralgia; duration 4 to 5 years, 4 w): 1 | markedly effective, number of cases (gonarthralgia; duration 4 to 5 years, 4 w): 2 | rate of effectiveness (gonarthralgia; duration 4 to 5 years, 4 w): 83.3% | rate of effectiveness (cases/total) (gonarthralgia; duration 4 to 5 years, 4 w): 5/6 | aggravated, number of cases (gonarthralgia; duration 4 to 5 years, 8 w): 0 | effective, number of cases (gonarthralgia; duration 4 to 5 years, 8 w): 2 | ineffective, number of cases (gonarthralgia; duration 4 to 5 years, 8 w): 1 | markedly effective, number of cases (gonarthralgia; duration 4 to 5 years, 8 w): 3 | rate of effectiveness (gonarthralgia; duration 4 to 5 years, 8 w): 83.3% | rate of effectiveness (cases/total) (gonarthralgia; duration 4 to 5 years, 8 w): 5/6 | aggravated, number of cases (gonarthralgia; [10]): 0 | effective, number of cases (gonarthralgia; [10]): 4 | ineffective, number of cases (gonarthralgia; [10]): 1 | markedly effective, number of cases (gonarthralgia; [10]): 1 | rate of effectiveness (gonarthralgia; [10]): 83.3% | rate of effectiveness (cases/total) (gonarthralgia; [10]): 5/6 | aggravated, number of cases (gonarthralgia; [11]): 0 | effective, number of cases (gonarthralgia; [11]): 3 | ineffective, number of cases (gonarthralgia; [11]): 1 | markedly effective, number of cases (gonarthralgia; [11]): 2 | rate of effectiveness (gonarthralgia; [11]): 83.3% | rate of effectiveness (cases/total) (gonarthralgia; [11]): 5/6 | cases with gonarthralgia completely cleared up, number (gonarthralgia; duration greater than 5 years): two | overall rate of improvement (gonarthralgia; entire group of 18 patients): 88.9% | patients with distinct palliation or complete clearing of gonarthralgia, number (gonarthralgia; entire group of patients): sixteen | results of "aggravated" (gonarthralgia; entire group of patients): no results of "aggravated" | results of "ineffective", number (gonarthralgia; entire group of patients): two | Effect on arthralgia after 4 w. (gonarthralgia; [12]): + (effective) and ++ and - (ineffective) | Effect on arthralgia after 8 w. (gonarthralgia; [12]): + (effective) and ++ and - (ineffective) | persistent gonarthralgia (gonarthralgia; most of the patients, during term of administration, not informed of relation): considerably palliated or completely cleared up | results of "markedly effective", 8 weeks compared with 4 weeks (gonarthralgia; overall): somewhat higher after the 8 week period | rate of effectiveness (gonarthralgia; overall, 4 w): 88.9% | rate of effectiveness (cases/total) (gonarthralgia; overall, 4 w): 16/18 | effective, number of cases (gonarthralgia; overall, 4 w, 18 cases): 10 | markedly effective, number of cases (gonarthralgia; overall, 4 w, 18 cases): 6 | rate of effectiveness (cases/total) (gonarthralgia; overall, 8 w): 16/18 | rate of effectiveness / overall rate of improvement (gonarthralgia; overall, 8 w): 88.9% | rate of "effective" (gonarthralgia; overall, after 4 weeks): 55.6% | rate of "ineffective" (gonarthralgia; overall, after 4 weeks): 11.1% | rate of "markedly effective" (gonarthralgia; overall, after 4 weeks): 33.3% | rate of "aggravated" (gonarthralgia; overall, after 8 weeks): 0% | rate of "effective" (gonarthralgia; overall, after 8 weeks): 44.4% and 44.48% | rate of "ineffective" (gonarthralgia; overall, after 8 weeks): 11.1% | rate of "markedly effective" (gonarthralgia; overall, after 8 weeks): 44.4% and 44.48% | onset of perceived palliation or clearing of arthralgia (gonarthralgia; patients who showed improvement, after start of administration): at the beginning of the second week | morning stiffness in the fingers ([4]; Case 4, after 4 weeks): cleared up | lumbago ([4]; Case 5, during the term of administration): cleared up | cinesalgia in the left shoulder (periarthritis) ([4]; Case 6, during the term of administration): No change | anomalies of sensation in fingers ([4]; Cases 10 and 15): not cleared up | Miscellaneous [4, 13]: morning stiffness in hands cleared; also recorded: carpal tunnel syndrome not changed; also recorded: dancing eliminated | Miscellaneous: lumbago [4, 13]: cleared; also recorded: lumbago lasting | discontinuation of administration in cases with epigastric discomfort (human patients; 3 cases (conclusions)): not discontinued in any of these cases | epigastric discomfort, number of cases (human patients; 18 patients, 8 weeks): 3 | epigastric discomfort, rate (human patients; 18 patients, 8 weeks): 16.7% | Miscellaneous: discontinuation and restart (human patients; Case 9 (Table 2)): administration discontinued after 2 w; also recorded: restarted because of worsened arthralgia | resolution of epigastric discomfort (human patients; Case 9, administration restarted): cleared up after 4 weeks | discontinuation of administration because of epigastric discomfort (human patients; Case 9, at the beginning of the second week): discontinued at the beginning of the second week | epigastric discomfort (human patients; Cases 3, 6 and 9, one to two weeks after administration began): suffered from epigastric discomfort for several days | resolution of epigastric discomfort (human patients; Cases 3 and 6): disappeared after 4 weeks | nausea, vomiting, exanthema or the like (human patients; all cases): In none of the cases | Side effect (transient epigastric discomfort) (human patients; [13]): transient | time of maximum concentration of elastase in the blood ([5]; after (oral) administration): 6 h | combination with blood proteins ([5]; in the blood): combines with α2 -macroglobulin and α1 -antitrypsin | area under the blood concentration curve versus dosage ([5]; oral): increases in proportion to the dosage | distribution ([5]; oral): distributed widely over all of the body tissues | excretion ([5]; oral): excreted into the urine | metabolism ([5]; oral): metabolized chiefly in the liver | isoelectric point [6]: 9.5±0.5 pH | optimal activation pH, particularly (elastase; N-α-benzoyl-L-alanine methyl ester as substrate): about 8.8 | optimal activation pH (elastase; N-α-benzoyl-L-alanine methyl ester as substrate, range): 8 to 10 | decomposition of N-α-benzoyl-L-alanine methyl ester, acetyl-L-trialanine-p-nitroanilide and elastin (elastase; porcine elastase): specifically decomposing | β-lipoproteinase activity and lipoprotein lipase activity (lipoprotein): confirmed | removal of denatured elastin, formation of fresh elastin, fat deposition, atherosclerosis ([7]; arterial walls): functions to remove denatured elastin from arterial walls and to promote formation of fresh elastin | effect on disturbance of lipid metabolism in the serum and tissues ([7]; in vivo): normalizing effect | elasticity and dilatability of arterial walls ([7]; in vivo): maintains and promotes

[Cl-].[K+] [KCl]
inhibition of elastase activity (elastase): inhibited

O=S(=O)([O-])[O-].[Cu+2] [CuSO4]
inhibition of elastase activity (elastase): inhibited

N.N.O=S(=O)(O)O [(NH4)2 SO4]
inhibition of elastase activity (elastase): inhibited

[Cl-].[Na+] [NaCl]
inhibition of elastase activity (elastase): inhibited
